The results in this text go back to US20060052456A1, “Kynurenine 3-hydroxylase inhibitors for the treatment of diabetes by increasing the number of islets of langerhans cells” (MERCK PATENT GMBH, priority 2003, published 2006).

The subject of one data set is N0STZ rats. Nature of the data set: Antidiabetic activity in N0STZ rats (glycaemia after oral treatment). The settings on record: for percentage change in the glycaemia relative to D0, D4 (20 mg) / percentage change in the glycaemia relative to D0, D4 (200 mg): four days of treatment; for percentage change in the glycaemia relative to D0, D1 (20 mg) / percentage change in the glycaemia relative to D0, D1 (200 mg): one day of treatment. The data set is classed as in vivo, rat. As for the experimental part:
Study of the Antidiabetic Activity in N0STZ Rats
The antidiabetic activity of the compounds of the formulae (I) and (II) orally was determined on an experimental model of non-insulin-dependent diabetes, induced in rats with steptozotocin.
The model of non-insulin-dependent diabetes is obtained in the rats by means of a neonatal injection (on the day of birth) of steptozotocin.
The diabetic rats used are eight weeks old. The animals are housed, from the day of birth to the day of the experiment, in an animal house at a regulated temperature of 21 to 22° C. and subjected to a fixed cycle of light (from 7 a.m. to 7 p.m.) and darkness (from 7 p.m. to 7 a.m.). Their food consisted of a maintenance diet, and water and food were given “ad libitum”, with the exception of fasting two hours before the tests, during which period the food is removed (post-absorptive state).
The rats are treated orally for one (D1) or four (D4) days with the test product. Two hours after the final administration of the product and 30 minutes after anaesthetising the animals with pentobarbital sodium (Nembutal®), a 300 μL blood sample is taken from the end of the tail.
The results presented below are expressed as a percentage change in the glycaemia on D1 and D4 (number of days of treatment) relative to D0 (before the treatment).

In another data set the test system is hepatocytes. The data set is described as follows: Hepatic glucose production in vitro in isolated hepatocytes (Table IV). The settings on record: for inhibition of hepatic glucose production in vitro (in words): isolated rat hepatocytes. Format: cell-based, Wistar rats. The method, then: The following two methods were used:
(§1) 1) The hepatocytes are cultured for 16 to 18 hours in DMEM medium in the presence of AMP cyclase/dexamethasone at respective concentrations of 5×10^−5 M and 5×10^−7 M, with preincubation of the products at the test doses. After washing in pH 7.4 PBS buffer, the cells are incubated for three hours at 37° C. in a Krebs/AMPc/DEX buffer at the abovementioned concentrations. 0.1 μM insulin is used as reference substance. Two identical experiments are performed (Table III-1).
(§2) After washing in pH 7.4 PBS buffer, the cells are incubated for two hours at 37° C. in a Krebs buffer free of glucose and of insulin, containing lactate/pyruvate (10/1 mM) in the presence or absence of the test compounds. 10 μM MICA (5-methoxyindole-2-carboxylic acid) is used as reference substance. Two identical experiments are performed (Table III-2).
The protein assay is performed on the rest of the incubation medium via the Lowry method (BIO-RAD Dc protein assay, BIO-RAD 5000116).
(§3) The results are expressed as nmoles of glucose produced per […] of proteins. The statistical test used is the t test.

In data set [1] the test system is perfused isolated pancreases from N0 STZ diabetic rats. Nature of the data set: Secretion of insulin and glucagon in perfused isolated pancreases from N0 STZ diabetic rats. Particulars: perfused diabetic rat pancreas; absence of glucose, then 16.5 mM glucose; glucose-dependent. Format: cell-based. The text has this:
The results are expressed as the mean ±SEM (standard error of mean) of several experiments. The statistical test used is the Scheffé test.

Data set [2] deals with primary hepatocytes. The data set is described as follows: Hepatic glucose production stimulated by AMPc/DEX in primary hepatocytes (Table III-1). Format: cell-based, Wistar rats. The method, then:
(§4) The hepatocytes are isolated from the liver of Wistar rats fasted for 24 hours, according to the method described in Methods Cell Biol., 13 (1975), 29-83.
as §1
(§5) Quantification of the glucose is performed via a calorimetric method using glucose oxidase (IL test™ Glucose, Monarch 181633-80). The protein assay is performed on the rest of the incubation medium via the Lowry method (BIO-RAD Dc protein assay, BIO-RAD 5000116).
as §3

Data set [3] has as its system primary hepatocytes. The data set is described as follows: Hepatic glucose production, basal Lact/Pyr 2 hours, in primary hepatocytes (Table III-2). Format: cell-based, Wistar rats. The method, then: as §4
2) The hepatocytes are cultured for 16 to 18 hours in RPMI 1640 medium free of glucose but supplemented with 1% glutamine, 100 U/mL penicillin, […] streptomycin and 7×10^−5 M hydrocortisone hemisuccinate.
as §2, §5, §3

The mark [4] stands for this setting: Rattus norvegicus, Hepatocyte, 10 μM.
The mark [5] stands for this setting: Rattus norvegicus, Hepatocyte, 100 μM.

Marks after values point to notes of the source that are not given here.

As for `O=C(CC(Sc1ccc(F)cc1)C(=O)O)c1ccccc1` (stereo not shown) [Ih-3, 2-(4′-fluorophenylthio)-4-phenyl-4-oxobutanoic acid], in the data set on N0STZ rats, the “percentage change in the glycaemia relative to D0, D4 (20 mg)” value is −19%; the “percentage change in the glycaemia relative to D0, D4 (200 mg)” value is on record as −12%; the “percentage change in the glycaemia relative to D0, D1 (20 mg)” value is given as −3%; the “percentage change in the glycaemia relative to D0, D1 (200 mg)” value is reported as 7%.

In turn, `O=C(CC(Sc1ccccc1)C(=O)O)c1ccc(Cl)cc1` (stereo not shown) [Ih-25, 2-phenylthio-4-(4′-chlorophenyl)-4-oxobutanoic acid] gave a melting point of 166 to 169 °C.

Turning to `COc1ccc(SC(CC(=O)c2ccc(Cl)cc2)C(=O)O)cc1` (stereo not shown) [Ih-29, 2-(4′-methoxyphenylthio)-4-(4′-chlorophenyl)-4-oxobutanoic acid], the melting point was in the range of 117 to 119 °C.

The molecule `O=C(CC(SC1CCCCC1)C(=O)O)c1ccccc1` (stereo not shown) [Ih-7, 2-cyclohexylthio-4-phenyl-4-oxobutanoic acid] came in with a melting point of 117 °C.

Molecule `Cc1ccc(SC(CC(=O)c2ccc(Cl)cc2)C(=O)O)cc1` (stereo not shown) [Ih-28, 2-(4′-methylphenylthio)-4-(4′-chlorophenyl)-4-oxobutanoic acid] registered a melting point of 151 to 153 °C.

`COc1ccc(C(=O)CC(Sc2ccc(F)cc2)C(=O)O)cc1` (stereo not shown) [Ih-18, 2-(4′-fluorophenylthio)-4-(4′-methoxyphenyl)-4-oxobutanoic acid]: the melting point fell in the range of 108 to 110 °C.

In turn, `Nc1ccccc1C(=O)CC(N)C(=O)O` (stereo not shown) [Kynurenine] came in with an inhibition at 1 µM with hepatocytes (Rattus norvegicus, Hepatocyte, 1 μM) of 2%. This molecule also showed an inhibition at 10 µM in the data set with hepatocytes (setting [4]) of 4%. This molecule had an inhibition at 100 µM with hepatocytes (setting [5]) of 25%. The molecule further came in with an inhibition at 1000 µM in the data set with hepatocytes (Rattus norvegicus, Hepatocyte, 1000 μM) of 78%. Further, the “inhibition of hepatic glucose production in vitro (in words)” value (from here on “inhibition … (in words)”) in the data set on hepatocytes was “powerful inhibitors of hepatic glucose production in vitro”. For the same molecule, in data set [1], the “glucagon secretion (in words)” value is reported as “stimulated” and the “insulin secretion (in words)” value is “stimulated”.

Molecule `O=C(CC(C(=O)O)c1ccc(Cl)cc1)c1ccc(Cl)cc1` (stereo not shown) [Ih-27, 2-(4′-chlorophenyl)-4-(4′-chlorophenyl)-4-oxobutanoic acid] came in with a melting point of 154 to 156 °C.

In the case of `COc1ccc(C(=O)CC(Sc2ccc(Cl)cc2)C(=O)O)cc1` (stereo not shown) [Ih-19, 2-(4′-chlorophenylthio)-4-(4′-methoxyphenyl)-4-oxobutanoic acid], the melting point is 120 to 121 °C.

Take `COc1ccc2[nH]c(C(=O)O)cc2c1` [MICA, 5-methoxyindole-2-carboxylic acid]: testing at 10 µM in the data set on hepatocytes (setting [4]) gave an inhibition of 67%.

As for `COc1ccc(SC(CC(=O)c2ccccc2)C(=O)O)cc1` (stereo not shown) [Ih-6, 2-(4′-methoxyphenylthio)-4-phenyl-4-oxobutanoic acid], the melting point fell in the range of 116 to 118 °C.

For the molecule `O=C(CC(Sc1ccc2ccccc2c1)C(=O)O)c1ccccc1` (stereo not shown) [Ih-1, 2-(2′-naphthylthio)-4-phenyl-4-oxobutanoic acid], the “percentage change in the glycaemia relative to D0, D4 (20 mg)” value in the data set on N0STZ rats is on record as −12%. Besides, the “percentage change in the glycaemia relative to D0, D4 (200 mg)” value with N0STZ rats was −21%. The “percentage change in the glycaemia relative to D0, D1 (20 mg)” value in the data set on N0STZ rats is listed as 7%. Also, in the data set with N0STZ rats, the “percentage change in the glycaemia relative to D0, D1 (200 mg)” value came to 10%. Besides, the “HGP % of control” value with primary hepatocytes [2] (1 μM) was 103 % of control; in the data set on primary hepatocytes [2] (10 μM), 83 % of control; in the data set on primary hepatocytes [2] (100 μM), 15 % of control; with primary hepatocytes [3] (1 μM) it was 110 % of control; with primary hepatocytes [3] (10 μM), 127 % of control; in the data set with primary hepatocytes [3] (100 μM), 75 % of control. The “inhibition … (in words)” value in the data set with hepatocytes is given as “powerful inhibitors of hepatic glucose production in vitro”.

`O=C(CC(Sc1ccc(Cl)cc1)C(=O)O)c1ccccc1` (stereo not shown) [Ih-4, 2-(4′-chlorophenylthio)-4-phenyl-4-oxobutanoic acid] showed a melting point of 140 to 142 °C.

For `O=C(CC(Sc1ccccc1)C(=O)O)c1ccccc1` (stereo not shown) [Ih-2, 2-phenylthio-4-phenyl-4-oxobutanoic acid], the melting point was in the range of 132 to 135 °C.

The molecule `O=C(CC(SCc1ccccc1)C(=O)O)c1ccccc1` (stereo not shown) [Ih-8, 2-benzylthio-4-phenyl-4-oxobutanoic acid] had a melting point of 143 to 146 °C.

In the data set on hepatocytes (setting [4]), `N[C@@H](Cc1c[nH]c2ccccc12)C(=O)O` [Tryptophan] registered an inhibition at 10 µM of 12%. In the data set with hepatocytes (setting [5]), this molecule displayed an inhibition at 100 µM of 81%. Moreover, the “inhibition … (in words)” value in the data set on hepatocytes is given as “powerful inhibitors of hepatic glucose production in vitro”. In addition, in data set [1], the “glucagon secretion (in words)” value was “stimulates glucagon secretion in a glucose-dependent manner” and the “insulin secretion (in words)” value was “stimulates insulin secretion in a glucose-dependent manner”.

The molecule `Cc1ccc(SC(CC(=O)c2ccccc2)C(=O)O)cc1` (stereo not shown) [Ih-5, 2-(4′-methylphenylthio)-4-phenyl-4-oxobutanoic acid] gave a melting point of 132 to 134 °C.

In the case of `O=C(C[C@@H](Cc1ccccc1)C(=O)O)c1ccc(Cl)c(Cl)c1` (racemic) [Compound j, (R,S)-2-benzyl-4-(3′,4′-dichlorophenyl)-4-oxobutanoic acid], the “inhibition of hepatic glucose production” value with hepatocytes (1 μM) was 30** %; in the data set on hepatocytes (10 μM), 51** %; in the data set on hepatocytes (100 μM), 65** %. Besides, the “inhibition … (in words)” value in the data set on hepatocytes is reported as “powerful inhibitors of hepatic glucose production in vitro”.

Take `O=C(CC(Sc1ccc(F)cc1)C(=O)O)c1ccc(Cl)cc1` (stereo not shown) [Ih-26, 2-(4′-fluorophenylthio)-4-(4′-chlorophenyl)-4-oxobutanoic acid]: the melting point fell in the range of 140 to 141 °C.

Regarding `COc1ccc(C(=O)CC(Sc2ccccc2)C(=O)O)cc1` (stereo not shown) [Ih-17, 2-phenylthio-4-(4′-methoxyphenyl)-4-oxobutanoic acid], the melting point fell in the range of 121 to 125 °C.

In turn, `COc1ccc(SC(CC(=O)c2ccc(OC)cc2)C(=O)O)cc1` (stereo not shown) [Ih-21, 2-(4′-methoxyphenylthio)-4-(4′-methoxyphenyl)-4-oxobutanoic acid] yielded a melting point of 137 to 140 °C.

The molecule `COc1ccc(C(=O)CC(SC2CCCCC2)C(=O)O)cc1` (stereo not shown) [Ih-23, 2-cyclohexylthio-4-(4′-methoxyphenyl)-4-oxobutanoic acid] came in with a melting point of 120 to 122 °C.

Take `O=C(O)c1cc(=O)c2ccccc2[nH]1` [Kynurenic acid]: in data set [1], the “glucagon secretion (in words)” value was “stimulates” and the “insulin secretion (in words)” value is recorded as “stimulates the secretion of insulin”.

For the molecule `COc1ccc(C(=O)CC(Sc2ccc(C)cc2)C(=O)O)cc1` (stereo not shown) [Ih-20, 2-(4′-methylphenylthio)-4-(4′-methoxyphenyl)-4-oxobutanoic acid], the melting point is 137 to 141 °C.

Turning to `COc1ccc(C(=O)CC(SCc2ccccc2)C(=O)O)cc1` (stereo not shown) [Ih-24, 2-benzylthio-4-(4′-methoxyphenyl)-4-oxobutanoic acid], the melting point was 105 to 109 °C.

Usually melting point stands for the temperature, or range, at which the solid turns liquid. The term inhibition denotes the change of the read-out against control, counted positive when it falls. A higher inhibition goes with a response far below the control.
